Structures can show the parent of a compound that is named as a salt.

One assay has as its system cholera toxin-induced intestinal fluid secretion. Kind of assay: animal or person. Format: in vivo, rat (female Charles River). Conditions: Rattus norvegicus, sc, read-out: Inhibitory Doses (ID50's).
In the case of `Cc1c(O)cccc1NC1=NCCC1.Cl` [Example 3, 3-[(3,4-dihydro-2H-pyrrol-5-yl)amino]-2-methylphenol hydrochloride], the ED50 stood at 8.3 mg/kg. The same measure, in the same setting: the result for `Oc1cccc(NC2=NCCC2)c1` [Example 5, 3-[3,4-dihydro-2H-pyrrol-5-yl)amino]phenol hydrochloride] reads 21.3 mg/kg. On the same count and under the same terms, next, `Cc1cc(O)ccc1NC1=NCCC1` [Example 6, 4-[(3,4-dihydro-2H-pyrrol-5-yl)amino]-3-methylphenol 1/4 hydrate]: 6.5 mg/kg.

For the compound `Cc1c(NC2=NCCC2)cccc1OC(=O)C(C)(C)C` [Example 10, 3-[(3,4-dihydro-2H-pyrrol-5-yl)amino]-2-methylphenyl 2,2-dimethylpropanoatehydrochloride 1/4 hydrate], the ED50 was found to be 6.4 mg/kg. Take `Cc1cc(OC(=O)C(C)(C)C)ccc1NC1=NCCC1` [Example 11, 4-[(3,4-dihydro-2H-pyrrol-5-yl)amino]-3-methylphenyl 2,2-dimethylpropanoatehydrochloride]: the ED50 was 9 mg/kg. The same measure, in the same setting: the result for `Cc1c(NC2=NCCC2)cccc1OC(=O)c1ccccc1` [Example 12, 3-[(3,4-dihydro-2H-pyrrol-5-yl)amino]-2-methylphenyl benzoate hydrobromide 1/4 hydrate] reads 5.7 mg/kg; that for `Cc1c(NC2=NCCC2)cccc1OC(=O)C1CCCCC1.Cl` [Example 14, 3-[(3,4-dihydro-2H-pyrrol-5-yl)amino]-2-methylphenyl cyclohexanecarboxylate hydrochloride], 8.1 mg/kg; that for `COc1ccccc1C(=O)Oc1cccc(NC2=NCCC2)c1C.Cl` [Example 15, 3-[(3,4-dihydro-2H-pyrrol-5-yl)amino]-2-methylphenyl 2-methoxybenzoate hydrochloride], 6.2 mg/kg.

On to `CC(=O)Oc1cccc(NC2=NCCC2)c1C.Cl` [Example 16, 3-[(3,4-dihydro-2H-pyrrol-5-yl)amino]-2-methylphenyl acetate hydrochloride], for which the ED50 was 10.1 mg/kg. Consider `COc1ccc(C(=O)Oc2cccc(NC3=NCCC3)c2C)cc1` [Example 17, 3-[(3,4-dihydro-2H-pyrrol-5-yl)amino]-2-methylphenyl 4-methoxybenzoate hydrochloride 5/8 hydrate], for which the ED50 came to 9.5 mg/kg. Same read-out and setting: next, `Cc1ccccc1C(=O)Oc1cccc(NC2=NCCC2)c1C.Cl` [Example 18, 3-[(3,4-dihydro-2H-pyrrol-5-yl)amino]-2-methylphenyl 2-methylbenzoate hydrochloride]: 40.5 mg/kg. Take `Cc1ccc(C(=O)Oc2cccc(NC3=NCCC3)c2C)cc1.Cl` [Example 19, 3-[(3,4-dihydro-2H-pyrrol-5-yl)amino]-2-methylphenyl 4-methylbenzoate hydrochloride]: the ED50 is 5.9 mg/kg. The same measure, in the same setting: the result for `Cc1c(NC2=NCCC2)cccc1OC(=O)c1ccc(Cl)cc1` [Example 20, 3-[(3,4-dihydro-2H-pyrrol-5-yl)amino]-2-methylphenyl 4-chlorobenzoate hydrochloride 1/4 ethanol] reads 10.6 mg/kg; that for `Cc1c(NC2=NCCC2)cccc1OC(=O)c1ccc(Cl)c(Cl)c1.Cl` [Example 21, 3-[(3,4-dihydro-2H-pyrrol-5-yl)amino]-2-methylphenyl 3,4-dichlorobenzoate hydrochloride], 5 mg/kg. On to `Cc1c(NC2=NCCC2)cccc1OC(=O)C1CC1.Cl` [Example 22, 3-[(3,4-dihydro-2H-pyrrol-5-yl)amino]-2-methylphenyl cyclopropanecarboxylate hydrochloride], for which the ED50 was 6.8 mg/kg. Still for that read-out and setting: next, `Cc1c(NC2=NCCC2)cccc1OC(=O)C12CC3CC(CC(C3)C1)C2` [Example 23, 3-[(3,4-dihydro-2H-pyrrol-5-yl)amino]-2-methylphenyl adamantane-1-carboxylate hydrochloride 1/4 hydrate]: 9.1 mg/kg; `Cc1c(NC2=NCCC2)cccc1OC(=O)c1ccco1` [Example 24, 3-[(3,4-dihydro-2H-pyrrol-5-yl)amino]-2-methylphenyl furan-2-carboxylate hydrochloride 1/8 methanol]: 8.3 mg/kg; `COC(=O)c1ccc(NC2=NCCC2)c(C)c1` [reference compound]: 74 mg/kg.

Still in this assay, the particulars now being: antisecretory antidiarrheal activity, qualitative statement.
Take `CN=C(N)NC(=O)Nc1c(C)cccc1C` [Lidamidine, reference compound]: the “activity in the cholera-induced intestinal fluid secretion assay (in words)” value was “active”.

Still in this assay, the particulars now being: subcutaneous route; class symbol; screening doses 10 and 20 mg/kg.
With `COc1ccc(NC2=NCCC2)c(C)c1` [reference compound], the “Inhibitory Doses (ID50's)” value is recorded as “I”. Still for that read-out and setting: next, `COc1cccc(NC2=NCCC2)c1C` [reference compound]: “I”.
